Relative viability data for one cell line are collected here from the supplement of paper PMC10307832.

What all share (experiment): relative viability (nuclei count vs DMSO), 5 days (fraction); higher = more cells survive
Compound in test [1]: Nc1nc(Nc2ccc3c(c2)CC[C@@H](N2CCCC2)CC3)nn1-c1cc2c(nn1)-c1ccccc1CCC2 [Bemcentinib] + COc1cc2c(Oc3ccc(NC(=O)C4(C(=O)Nc5ccc(F)cc5)CC4)cc3F)ccnc2cc1OCCCN1CCOCC1 [Foretinib] (partner 0.25 µM)
An outline of the steps: (§1)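 Relative viability equals treated-well nuclei counts divided by vehicle-well nuclei counts. Counts came from 4× images of lung cancer cell lines grown in 1536-well plates for 5 days after pin-tool dosing on the day after seeding. Dosing used one drug alone or a fixed anchor-drug dose plus five library-drug doses (not always all listed) in √10 steps, and values are medians of duplicate plates.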

Compound in test [2]: Nc1nc(Nc2ccc3c(c2)CC[C@@H](N2CCCC2)CC3)nn1-c1cc2c(nn1)-c1ccccc1CCC2 [Bemcentinib] + C[C@]1(O)C[C@@H](c2nc(-c3ccc4ccc(-c5ccccc5)nc4c3)c3c(N)nccn32)C1 [Linsitinib] (partner 1 µM)
In outline: as §1

Compound in test [3]: CNC(=O)c1ccccc1Sc1ccc2c(/C=C/c3ccccn3)n[nH]c2c1 [Axitinib] + O=C(CCCCCCC(=O)Nc1ccccc1)NO [Vorinostat] (partner 1 µM)
In outline: as §1

Compound in test [4]: CC1=CC=C(C=C1)C(=O)CN2C3=C(CCCC3)SC2=N [Pifithrin_alpha] + CS(=O)(=O)N1CCN(Cc2cc3nc(-c4cccc5[nH]ncc45)nc(N4CCOCC4)c3s2)CC1 [Pictilisib] (partner 1 µM)
In outline:
as §1

With NCI-H650, the relative viability in test [1] (first compound 0.04 µM) stood at 0.975; in test [1] (first compound 0.1265 µM), 1.16; in test [1] (first compound 0.4 µM) it was 1.04; in test [1] (first compound 1.265 µM) it was 1.02; in test [1] (first compound 4 µM), 1.05; in test [2] (first compound 0.04 µM), 0.976. Moreover, the relative viability in test [2] (first compound 0.1265 µM) was found to be 0.982; in test [2] (first compound 0.4 µM), 0.974; in test [2] (first compound 1.265 µM), 0.823; in test [2] (first compound 4 µM), 0.774; in test [3] (first compound 0.005 µM) it was 0.371; in test [3] (first compound 0.01581 µM), 0.452. Moreover, the relative viability in test [3] (first compound 0.05 µM) was determined as 0.448; in test [3] (first compound 0.1581 µM), 0.459; in test [3] (first compound 0.5 µM), 0.366; in test [4] (first compound 3.162 µM), 0.91; in test [4] (first compound 10 µM), 0.873; in test [4] (first compound 31.62 µM), 0.58. The relative viability in test [4] (first compound 100 µM) was found to be 0.763.
